Article PMC6133092, “Synthesis of 2-alkylthio-N-(quinazolin-2-yl)benzenesulfonamide derivatives: anticancer activity, QSAR studies, and metabolic stability” (Monatshefte Fur Chemie, 2018)

Columns and labels:
[1] = tested on: UO-31; assay: NCI-60 single dose screen, UO-31; format: cell-based; conditions: Homo sapiens, Renal cancer, single concentration 10^−5 M, read-out: IGP (inhibition growth percent) UO-31
Description: (§1) Aside from above, compounds 9–14 and 17–24 were also submitted to National Cancer Institute and evaluated for the cytotoxic effects toward 60 cell lines at a single dose of 10 μM (Table 2). […] As it was summarized in Table 2, leukemia RPMI-8226 and NSCLC A549/ATCC were most sensitive to compounds 18, 22, and 24. These derivatives in 10 μM concentration inhibited the growth of approximately 50% cells belonging to the above mention cell lines.
(§2) Cytotoxicity evaluation of compounds 9–14 and 17–24 was performed at the National Cancer Institute according to NCI-60 DTP human tumor cell line screen procedure.

[2] = tested on: A549/ATCC; assay: NCI-60 single dose screen, A549/ATCC; format: cell-based; conditions: Homo sapiens, A549, NSCLC; single concentration 10^−5 M; read-out: IGP (inhibition growth percent) A549/ATCC
Description: as §1, §2

[3] = Metabolic stability in human liver microsomes with NADPH; format: in vitro ADME; conditions: pooled human liver microsomes, pH 7.4, human liver microsomes 0.5 mg/cm^3, NADPH 1 mM, 10 μM compound, 37 °C, read-out: in vitro metabolic half-life t1/2
Description: Selected derivatives were submitted to metabolic stability study to assess their ability to remain unchanged in the presence of human metabolic enzymes. Human liver microsomes were used as they are a rich source of all common CYP isoenzymes. In vitro incubations were performed in the presence of NADPH as a cofactor and the disappearance of a derivative was followed using LC–MS technique. The in vitro metabolic half-life values are gathered in Fig. 3.
Stock solutions of studied compounds were prepared at concentration of 10 mM in DMSO. […] Incubation mixture contained 10 μM of a studied derivative, 1 mM of NADPH (Sigma-Aldrich) and 0.5 mg/cm^3 of pooled human liver microsomes (HLM, Sigma-Aldrich) in potassium phosphate buffer (0.1 M, pH 7.4). Incubation was carried out in thermostat at 37 °C and started by addition of studied compound. 50 mm^3 samples were taken at starting point and after 5, 15, 30, 45, and 60 min. Enzymatic reaction was terminated by the addition of the equal volume of ice-cold acetonitrile. Incubations were performed in triplicates, the average t1/2 and standard deviation was calculated. Control incubations were performed without NADPH to assess chemical instability. After collection, samples were immediately centrifuged (10 min, 10,000 rpm) and resulted supernatant was directly analyzed or kept in − 80 °C until LC–MS analysis. Natural logarithm of a compound over IS peak area ratio was plotted versus incubation time. Metabolic half-time (t1/2) was calculated from the slope of the linear regression.
LC–MS analysis was performed on an Agilent 1260 system coupled to SingleQuad 6120 mass spectrometer (Agilent Technologies, Santa Clara, CA, USA). Poroshell EC-C18 (2.1 mm × 150 mm, 2.7 μm, Agilent Technologies, Santa Clara, CA, USA) was used in reversed-phase mode with gradient elution starting with 5% of phase A (10 mM ammonium formate in water) and 95% of phase B (10 mM ammonium formate in acetonitrile–water mixture, 95:5 v/v). […] Total analysis time was 15 min at 40 °C, flow rate was 1 cm^3/min and the injection volume was 5 mm^3. The mass spectrometer was equipped with electrospray ion source and operated in positive ionization. Mass analyzer was set individually to each compound to detect [M+H]^+ protonated molecule. MSD parameters of the ESI source were as follows: nebulizer pressure 35 psig (N2), drying gas […] (N2), drying gas temperature 300 °C, capillary voltage 3 kV, fragmentor voltage 150 V.

[4] = tested on: MCF-7; assay: NCI-60 single dose screen, MCF-7; format: cell-based; conditions: Homo sapiens, MCF7; Breast cancer; single concentration 10^−5 M; read-out: IGP (inhibition growth percent) MCF-7
Description: as §1, §2

[5] = tested on: NCI-H522; assay: NCI-60 single dose screen, NCI-H522; format: cell-based; conditions: Homo sapiens, NSCLC, single concentration 10^−5 M, read-out: IGP (inhibition growth percent) NCI-H522
Description: as §1, §2

[6] = tested on: HCT-116, HeLa, MCF-7; assay: MTT assays, mean over three tested cell lines; format: cell-based; conditions: Homo sapiens, mean of HCT-116, HeLa, read-out: mean IC50 against three tested cell lines
Description: (§3) All of the newly synthesized compounds 9–24 were evaluated for their effects on cell viability in three human cancer cell lines: HCT-116 (colon cancer), HeLa (cervical cancer), and MCF-7 (breast cancer). Cisplatin was used as reference drug. […] Considering the activity of derivatives 9–12, 15, 17, 18, and 21–24, it can be noticed that phenyl group as R^3 bring an increase of cytotoxicity in comparison with methyl in place of R^3. However, this impact seems to be the most important for compounds with the bulky group in R^1 and generally, it is less for a set of derivatives with methyl group substituted in R^1 (9–12).
(§4) Cell viability was determined using the MTT (3-(4,5-dimethylthiazol-2-yl)-2,5-diphenyltetrazolium bromide) assay. Cells were seeded in 96-well plates at a density of 5 × 10^3 cells/well and treated for 72 h with the examined compounds in the concentration range 1–100 μM (1, 10, 25, 50, and 100 μM). Following treatment, MTT (0.5 mg/cm^3) was added to the medium and cells were further incubated for 2 h at 37 °C. Cells were lysed with DMSO and the absorbance of the formazan solution was measured at 550 nm with a plate reader (Victor, 1420 multilabel counter). […] The experiment was performed in triplicate. Values are expressed as the mean ± SD of at least three independent experiments.

[7] = tested on: MCF-7 (breast cancer); assay: MTT cell viability assay, MCF-7; format: cell-based, human; conditions: Homo sapiens, MCF7, 72 h, mean ± SD
Description: as §3
(§5) All chemicals, if not stated otherwise, were obtained from Sigma-Aldrich (St. Louis, MO, USA). The MCF-7 and HeLa cell lines were purchased from Cell Lines Services (Eppelheim, Germany), the HCT-116 cell line was purchased from ATCC (ATCC-No: CCL-247). Cells were cultured in Dulbecco’s modified Eagle’s medium (DMEM) supplemented with 10% fetal bovine serum, 2 mM glutamine, 100 units/cm^3 penicillin, and 100 μg/cm^3 streptomycin. Cultures were maintained in a humidified atmosphere with 5% CO2 at 37 °C in an incubator (Heraceus, HeraCell).
as §4

[8] = tested on: HeLa (cervical cancer); assay: MTT cell viability assay, HeLa; format: cell-based; conditions: Homo sapiens
Description: as §5, §4

[9] = tested on: UACC-62; assay: NCI-60 single dose screen, UACC-62; format: cell-based; conditions: Homo sapiens, Melanoma, single concentration 10^−5 M, read-out: IGP (inhibition growth percent) UACC-62
Description: as §1, §2

[10] = tested on: PC-3; assay: NCI-60 single dose screen, PC-3; format: cell-based; conditions: Homo sapiens, Prostate cancer, single concentration 10^−5 M, read-out: IGP (inhibition growth percent) PC-3
Description: as §1, §2

[11] = tested on: RPMI-8226; assay: NCI-60 single dose screen, RPMI-8226; format: cell-based; conditions: Homo sapiens, RPMI-8226, Leukemia; single concentration 10^−5 M; read-out: IGP (inhibition growth percent) RPMI-8226
Description: as §1, §2

[12] = tested on: HCT-116; assay: NCI-60 single dose screen, HCT-116; format: cell-based; conditions: Homo sapiens, Colon cancer, single concentration 10^−5 M, read-out: IGP (inhibition growth percent) HCT-116
Description: as §1, §2

[13] = tested on: HaCaT; assay: Cytotoxic effect against non-carcinogenic cell line HaCaT; format: cell-based
Description: For the compounds with the strongest cytotoxicity (12, 18, 22, and 24), an investigation of cytotoxic effect against non-carcinogenic cell line HaCaT was done. […] The activity against HCT-116 was 1.7-, 1.6-, 1.5-, and 1.4-fold higher when compared with HaCaT cell line, for compounds 12, 18, 22, and 24, respectively.
as §4

[14] = tested on: HCT-116 (colon cancer); assay: MTT cell viability assay, HCT-116; format: cell-based; conditions: Homo sapiens, 72 h, mean ± SD
Description: as §5, §4

[15] = tested on: MOLT-4; assay: NCI-60 single dose screen, MOLT-4; format: cell-based; conditions: Homo sapiens, Leukemia, single concentration 10^−5 M, read-out: IGP (inhibition growth percent) MOLT-4
Description: as §1, §2

[16] = tested on: EKVX; assay: NCI-60 single dose screen, EKVX; format: cell-based; conditions: Homo sapiens, NSCLC, single concentration 10^−5 M, read-out: IGP (inhibition growth percent) EKVX
Description: as §1, §2

[17] = tested on: SR; assay: NCI-60 single dose screen, SR; format: cell-based; conditions: Homo sapiens, Leukemia, single concentration 10^−5 M, read-out: IGP (inhibition growth percent) SR
Description: as §1, §2

[18] = tested on: HOP-92; assay: NCI-60 single dose screen, HOP-92; format: cell-based; conditions: Homo sapiens, NSCLC, single concentration 10^−5 M, read-out: IGP (inhibition growth percent) HOP-92
Description: as §1, §2

[19] = Table 4, repeats Table 1 values without SD and unit

Row | SMILES | half-life at 10 μM [3] | IC50 [7] | IC50 ([8]; MTT, 72 h, mean ± SD) | IC50 [8, 19] | IC50 [14] | melting point | inhibition at 10 µM [1] | inhibition at 10 µM [2] | inhibition at 10 µM [4] | inhibition at 10 µM [5] | inhibition at 10 µM [9] | inhibition at 10 µM [10] | inhibition at 10 µM [11] | inhibition at 10 µM [12] | inhibition at 10 µM [15] | inhibition at 10 µM [16] | inhibition at 10 µM [17] | inhibition at 10 µM [18] | also measured
1 | Cc1cc(S(=O)(=O)Nc2nc(-c3ccccc3)c3ccccc3n2)c(SCc2cc3c(cc2Cl)OCO3)cc1Cl [Compound 12, 4-Chloro-2-(6-chlorobenzo[d][1,3]dioxol-5-ylmethylthio)-5-methyl-N-(4-phenylquinazolin-2-yl)benzenesulfonamide] | 48.1 min | 51 ± 2 µM | 46 ± 1 µM | 46 µM | 37 ± 1 µM | – | 25% | 14% | 5% | 16% | 33% | 14% | 2% | 6% | 12% | – | – | – | IC50 [6]: 44.7 µM; IC50 ([13]; Homo sapiens, HaCaT, non-carcinogenic cell line, mean ± SD): 64 ± 2 µM; activity against HCT-116 fold higher compared with HaCaT ([13]; selectivity HCT-116 vs HaCaT): 1.7 fold; inhibition of growth of HaCaT cells fold weaker than HeLa cells ([13]; selectivity HeLa vs HaCaT): 1.4 fold
2 | Cc1cc(S(=O)(=O)Nc2nc(-c3ccccc3)c3ccccc3n2)c(SCc2ccccc2)cc1Cl [Compound 10, 2-Benzylthio-4-chloro-5-methyl-N-(4-phenylquinazolin-2-yl)benzenesulfonamide] | 49.2 min | 57 ± 1 µM | 61 ± 2 µM | 61 µM | 44 ± 1 µM | 192 to 198 °C | 5% | – | 9% | – | 29% | – | 25% | 8% | 25% | 6% | 14% | 17% | –
3 | Cc1nc(NS(=O)(=O)c2cc(C(=O)Nc3ccc(Cl)cc3)c(Cl)cc2SCc2ccccc2)nc2ccccc12 [Compound 21, 2-Benzylthio-4-chloro-5-(4-chlorophenylcarbamoyl)-N-(4-methylquinazolin-2-yl)benzenesulfonamide] | 37.7 min | 115 ± 2 µM | 71 ± 2 µM | 71 µM | 54 ± 1 µM | – | 22% | 8% | 5% | 20% | 6% | 8% | 12% | 4% | 7% | 8% | 3% | 8% | –

Second part, led by results:

Row | half-life at 10 μM [3] | IC50 [7] | IC50 ([8]; MTT, 72 h, mean ± SD) | IC50 [8, 19] | IC50 [14] | melting point | SMILES | inhibition at 10 µM [1] | inhibition at 10 µM [2] | inhibition at 10 µM [4] | inhibition at 10 µM [5] | inhibition at 10 µM [9] | inhibition at 10 µM [10] | inhibition at 10 µM [11] | inhibition at 10 µM [12] | inhibition at 10 µM [15] | inhibition at 10 µM [16] | inhibition at 10 µM [17] | inhibition at 10 µM [18] | also measured
4 | 75.4 min | 440 ± 4 µM | 320 ± 22 µM | – | 260 ± 5 µM | 232 to 235 °C (dec.) | Cc1cc(S(=O)(=O)Nc2nc(C)c3ccccc3n2)c(SCC(N)=O)cc1Cl [Compound 13, 2-Carbamoylmethylthio-4-chloro-5-methyl-N-(4-methylquinazolin-2-yl)benzenesulfonamide] | 8% | – | 6% | 4% | – | – | – | – | 11% | 5% | 12% | – | –
5 | – | 160 ± 6 µM | 230 ± 7 µM | – | 110 ± 2 µM | 192 to 194 °C | CCOC(=O)CSc1cc(Cl)c(C)cc1S(=O)(=O)Nc1nc(C)c2ccccc2n1 [Compound 15, 4-Chloro-2-(2-ethoxy-2-oxoethylthio)-5-methyl-N-(4-methylquinazolin-2-yl)benzenesulfonamide] | – | – | – | – | – | – | – | – | – | – | – | – | –
6 | – | 105 ± 3 µM | 74 ± 4 µM | 74 µM | 62 ± 1 µM | 162 to 165 °C | CCOC(=O)CSc1cc(Cl)c(C)cc1S(=O)(=O)Nc1nc(-c2ccccc2)c2ccccc2n1 [Compound 16, 4-Chloro-2-(2-ethoxy-2-oxoethylthio)-5-methyl-N-(4-phenyl-quinazolin-2-yl)benzenesulfonamide] | – | – | – | – | – | – | – | – | – | – | – | – | –
